In paper PMC9026348, “Investigation of Direct and Retro Chromone-2-Carboxamides Based Analogs of Pseudomonas aeruginosa Quorum Sensing Signal as New Anti-Biofilm Agents” (Pharmaceuticals, 2022):

Tests used:
[1] = tested on: P. aeruginosa PAO1 biofilms; assay: Anti-biofilm assay, CFU count of adherent cells; format: cell-based, Pseudomonas aeruginosa PAO1; settings: PAO1, 48 h, relative to untreated control, mean ± SD of 3 independent experiments; for inhibition at 50 µM: Pseudomonas aeruginosa; for Biofilm Inhibition (%): 50 µM
Experimental: The effect of all compounds was evaluated on PAO1 biofilms, grown in 24-well microplates. The antibiofilm assay used in this study is based on a low nutritive culture medium, a rather weak inoculum (10^2 CFU/mL), and a regular renewal of the culture medium (at 2, 4, 6, 20, and 24 h), in order to promote the growth of adhered cells as biofilm, instead of the growth and/or sedimentation of planktonic cells. Since the QS systems are involved in early steps of biofilm formation, compounds were added at t0. After incubation, viable cells were quantified by CFU plate counts.
The rather low concentration of 50 µM used was set up according to detected concentrations of QS molecules in CF patients’ lungs. […] For all compounds, MICs/MBCs were higher than 500 µM. To be considered active, a threshold of 50% inhibition, relative to the untreated control, was applied.
Pseudomonas aeruginosa PAO1 was obtained from the Institute Pasteur Collection (CIP 104116, Paris, France), frozen and kept at -80 °C in a 20% (v/v) glycerol stock solution. Before each experiment, two successive subcultures were prepared on trypticase soy agar and incubated for 24 h under aerobic conditions at 37 °C. Before each experiment, bacterial suspensions of 10^8 CFU/mL were prepared by adjusting OD at 640 nm to 0.150.
The bacterial enumerations were done on trypticase soy agar. The minimum biofilm broth used for biofilm formation (MBB) was prepared in sterile distilled water (SDW) and was composed of MgSO4·7H2O (0.02 g/L), FeSO4·7H2O (0.5 mg/L), Na2HPO4 (1.25 g/L), KH2PO4 (0.5 g/L), (NH4)2SO4 (0.1 g/L), and glucose (0.05 g/L) from Merck-Sigma (France).
The enumeration of adhered bacteria was carried-out according to Campanac et al. with some modifications. P. aeruginosa biofilms were grown in a 24-wells microtiter plate for 48 h. The culture medium was composed of BBM 2X (1.0 mL) and 1.0 mL of a 10^−4 M solution of tested compound dissolved in SDW (final concentration 50 µM). After inoculation with 100 µL of a 10^2 CFU/mL bacterial suspension of P. aeruginosa PAO1 (final inoculum 10 CFU/well), the microtiter plate was incubated à 37 °C. After 2 h, 4 h, 6 h, 20 h and 24 h of incubation, each well was emptied, rinsed twice with SDW, and the culture medium was renewed. After 48 h of culture, the biofilm was rinsed twice with 2.0 mL SDW. The bottom of each well was scraped with a sterile spatula and suspended in 1.0 mL of SDW. The content of each well was diluted by serial dilutions in test tubes. After inclusion of 0.9 mL of each dilution in trypticase soy agar, Petri dishes were incubated for 48 h at 37 °C. The number of colony forming units (CFUs) was counted and the inhibition percentage calculated using the following formula: Inhibition(%)=Adhered cellsControl(CFU/mL)−Adhered cellsSample(CFU/mL) /Adhered cellsControl×100

| melting point [°C] | SMILES | inhibition at 50 µM [1] [%] | Biofilm Inhibition (%) [1] |
| --- | --- | --- | --- |
| 181 | O=C(Nc1ccccc1Cl)c1cc(=O)c2ccccc2o1 [3i, N-(2-Chlorophenyl)-4-oxo-4H-chromene-2-carboxamide] | 35.2 ± 14.8 |  |
| 129 | CC(C)(C)OC(=O)N1CCC(CNC(=O)c2cc(=O)c3ccccc3o2)CC1 [3′e, Tert-butyl 4-((4-oxo-4H-chromene-2-carboxamido)methyl)piperidine-1-carboxylate] | 36 ± 28.6 |  |
| 287 | O=C(Nc1cc(=O)c2ccccc2o1)c1ccc(N2CCOCC2)cc1 [6u, 4-Morpholino-N-(4-oxo-4H-chromen-2-yl) benzamide] | 56.8 ± 10 |  |
| 291 | O=C(Nc1ccc(F)c(Cl)c1)c1cc(=O)c2ccccc2o1 [3l, N-(3-Chloro-4-fluorophenyl)-4-oxo-4H-chromene-2-carboxamide] | < 10 |  |
| 307 | O=C(Nc1ccc([N+](=O)[O-])cc1)c1cc(=O)c2ccccc2o1 [3m, N-(4-Nitrophenyl)-4-oxo-4H-chromene-2-carboxamide] | 58.7 ± 2.5 |  |
| 237 | CCc1ccc(C(=O)Nc2cc(=O)c3ccccc3o2)cc1 [6c, 4-Ethyl-N-(4-oxo-4H-chromen-2-yl) benzamide] | 63.1 ± 3 |  |
| 323 | O=C(Nc1cc(=O)c2ccccc2o1)c1ccc([N+](=O)[O-])cc1 [6m, 4-Nitro-N-(4-oxo-4H-chromen-2-yl) benzamide] | < 10 | inactive |
| 296 | O=C(Nc1cc(=O)c2ccccc2o1)c1ccc(Cl)cc1 [6f, 4-Chloro-N-(4-oxo-4H-chromen-2-yl) benzamide] | 66.6 ± 2.1 |  |
| 189 | O=C(Nc1ncccn1)c1cc(=O)c2ccccc2o1 [3v, 4-Oxo-N-(pyrimidin-2-yl)-4H-chromene-2-carboxamide] | 46 ± 7.3 |  |
| 251 | O=C(Nc1cc(=O)c2ccccc2o1)c1ccc(F)cc1 [6e, 4-Fluoro-N-(4-oxo-4H-chromen-2-yl) benzamide] | 65.3 ± 7.6 |  |
| 229 | O=C(Nc1ccc(F)cc1Cl)c1cc(=O)c2ccccc2o1 [3k, N-(2-Chloro-4-fluorophenyl)-4-oxo-4H-chromene-2-carboxamide] | 44.7 ± 9.4 |  |
| 218 | O=C(Nc1cc(=O)c2ccccc2o1)c1ccccc1 [6a, N-(4-Oxo-4H-chromen-2-yl) benzamide] | 73.6 ± 6.1 |  |
| 110 | CCN(CC)CCCC(C)NC(=O)c1cc(=O)c2ccccc2o1 (stereo not drawn) [3′g, N-(5-(Diethylamino)pentan-2-yl)-4-oxo-4H-chromene-2-carboxamide] | 14.7 ± 2.1 |  |
| 195 | O=C(Nc1ccccc1Br)c1cc(=O)c2ccccc2o1 [3j, N-(2-Bromophenyl)-4-oxo-4H-chromene-2-carboxamide] | 46.1 ± 10.2 |  |
| 287 | O=C(Nc1cc(=O)c2ccccc2o1)c1ccc(Br)cc1 [6g, 4-Bromo-N-(4-oxo-4H-chromen-2-yl) benzamide] | 56.2 ± 7.9 |  |
| 194 | O=C(Nc1cc(=O)c2ccccc2o1)c1ccccc1F [6h, 2-Fluoro-N-(4-oxo-4H-chromen-2-yl) benzamide] | 27.8 ± 10.7 |  |
| 166 | CCCNC(=O)c1cc(=O)c2ccccc2o1 [3w, 4-Oxo-N-propyl-4H-chromene-2-carboxamide] | < 10 |  |
|  | COc1ccc(NC(=O)c2cc(=O)c3ccccc3o2)cc1 [3p, N-(4-Methoxyphenyl)-4-oxo-4H-chromene-2-carboxamide] | 47.5 ± 5.3 |  |
| 227 | COc1ccc(C(=O)Nc2cc(=O)c3ccccc3o2)cc1 [6p, 4-Methoxy-N-(4-oxo-4H-chromen-2-yl) benzamide] | 39.3 ± 17.1 |  |

| melting point [°C] | SMILES | inhibition at 50 µM [1] [%] | Biofilm Inhibition (%) [1] |
| --- | --- | --- | --- |
| 211 | O=C(Nc1ccc(F)cc1)c1cc(=O)c2ccccc2o1 [3e, N-(4-Fluorophenyl)-4-oxo-4H-chromene-2-carboxamide] | 73.3 ± 11 |  |
| 179 | CCc1ccc(NC(=O)c2cc(=O)c3ccccc3o2)cc1 [3c, N-(4-Ethylphenyl)-4-oxo-4H-chromene-2-carboxamide] | 43.3 ± 7.2 |  |
| 117 | O=C(CN1CCN(C(=O)c2cc(=O)c3ccccc3o2)CC1)N1CCCC1 [3′i, 2-(4-(2-Oxo-2-(pyrrolidin-1-yl)ethyl)piperazine-1-carbonyl)-4H-chromen-4-one] | 10.8 ± 0.4 |  |
| 215 to 218 | O=C(Nc1cc(=O)c2ccccc2o1)c1ccccc1Br [6j, 2-Bromo-N-(4-oxo-4H-chromen-2-yl) benzamide] | 36.1 ± 4.1 |  |
| 260 | COc1ccccc1C(=O)Nc1cc(=O)c2ccccc2o1 [6q, 2-Methoxy-N-(4-oxo-4H-chromen-2-yl) benzamide] | 35.2 ± 6.8 |  |
| 225 | O=C(Nc1ccccc1F)c1cc(=O)c2ccccc2o1 [3h, N-(2-Fluorophenyl)-4-oxo-4H-chromene-2-carboxamide] | 42.4 ± 10.4 |  |
|  | CCN(CC)Cc1cc(NC(=O)c2cc(=O)c3ccccc3o2)ccc1O [3′b] |  | 35.5 ± 5.8% |
| 240 | Cc1ccc(C(=O)Nc2cc(=O)c3ccccc3o2)cc1 [6b, 4-Methyl-N-(4-oxo-4H-chromen-2-yl) benzamide] | 67 ± 3.6 |  |
| 179 | O=C(NC1CCCCC1)c1cc(=O)c2ccccc2o1 [3x, N-Cyclohexyl-4-oxo-4H-chromene-2-carboxamide] | 32 ± 10.3 |  |
| 163 | CSc1ccccc1NC(=O)c1cc(=O)c2ccccc2o1 [3r, N-(2-(Methylthio)phenyl)-4-oxo-4H-chromene-2-carboxamide] | 47.8 ± 5.7 |  |
| 211 | COc1cc(NC(=O)c2cc(=O)c3ccccc3o2)cc(OC)c1 [3t, N-(3,5-Dimethoxyphenyl)-4-oxo-4H-chromene-2-carboxamide] | < 10 |  |
| 249 | O=C(Nc1cc(=O)c2ccccc2o1)c1ccc(F)cc1Cl [6k, 2-Chloro-4-fluoro-N-(4-oxo-4H-chromen-2-yl) benzamide] | 63.2 ± 9.3 |  |
| 246 | COc1ccc(C(=O)Nc2cc(=O)c3ccccc3o2)cc1OC [6s, 3,4-Dimethoxy-N-(4-oxo-4H-chromen-2-yl) benzamide] | 71.9 ± 13.5 |  |
| 241 | O=C(Nc1cc(=O)c2ccccc2o1)C1CCCCC1 [6x, N-(4-Oxo-4H-chromen-2-yl)cyclohexanecarboxamide] | 48.7 ± 5.3 |  |
| 215 | O=C(Nc1cc(=O)c2ccccc2o1)c1ncccn1 [6v, N-(4-Oxo-4H-chromen-2-yl) pyrimidine-2-carboxamide] | 48.8 ± 2.6 |  |
|  | Cc1ccc(NC(=O)c2cc(=O)c3ccccc3o2)cc1 [3b, 4-Oxo-N-(p-tolyl)-4H-chromene-2-carboxamide] | 39.1 ± 5.4 |  |
|  | O=C(Nc1ccc(Br)cc1)c1cc(=O)c2ccccc2o1 [3g, N-(4-Bromophenyl)-4-oxo-4H-chromene-2-carboxamide] | 47.2 ± 2.8 |  |
| 261 | O=C(Nc1ccc(Cn2ccnc2)cc1)c1cc(=O)c2ccccc2o1 [3′d, N-(4-((1H-Imidazol-1-yl)methyl)phenyl)-4-oxo-4H-chromene-2-carboxamide] | < 10 |  |

| SMILES | melting point [°C] | inhibition at 50 µM [1] [%] | Biofilm Inhibition (%) [1] |
| --- | --- | --- | --- |
| O=C(Nc1cc(=O)c2ccccc2o1)c1cc([N+](=O)[O-])cc([N+](=O)[O-])c1 [6o, 3,5-Dinitro-N-(4-oxo-4H-chromen-2-yl) benzamide] | 291 | 78.3 ± 4 |  |
| O=C(Nc1cc([N+](=O)[O-])cc([N+](=O)[O-])c1)c1cc(=O)c2ccccc2o1 [3o, N-(3,5-Dinitrophenyl)-4-oxo-4H-chromene-2-carboxamide] | 312 | 43.8 ± 24.2 |  |
